Source: patent US8952024B2, “Herbicidal pyrimidone derivatives” (E I du Pont de Nemours and Company, priority 2009, dated 2015)

Columns and labels:
Type in all cases: in vivo
[1] = test system: wheat (Triticum aestivum); assay: Test A pre-/postemergence plant response
How it was run: (§1)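 Each species was treated preemergence via directed soil spray and postemergence at the one- to two-leaf stage, with compounds formulated in a non-phytotoxic solvent plus surfactant. Visual injury relative to untreated controls was rated after about ten days on a 0–100 scale.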

[2] = test system: barnyardgrass (Echinochloa crus-galli); assay: Test A pre-/postemergence plant response
How it was run: as §1

[3] = test system: morningglory (Ipomoea spp.); assay: Test A pre-/postemergence plant response
How it was run: as §1

[4] = test system: large crabgrass (Digitaria sanguinalis); assay: Test A pre-/postemergence plant response
How it was run: as §1

[5] = test system: pigweed (Amaranthus retroflexus); assay: Test A pre-/postemergence plant response
How it was run: as §1

[6] = test system: corn (Zea mays); assay: Test A pre-/postemergence plant response
How it was run: as §1

[7] = test system: velvetleaf (Abutilon theophrasti); assay: Test A pre-/postemergence plant response
How it was run: as §1

[8] = test system: giant foxtail (Setaria faberii); assay: Test A pre-/postemergence plant response
How it was run: as §1

[9] = test system: umbrella sedge (Cyperus difformis); assay: Test B flooded paddy test; settings: for Plant response rating, Flood, Sedge, Umbrella: 250 g ai/ha, flooded paddy test, visual rating on 0 to 100 scale (0 no effect, 100 complete control) after 13 to 15 days; for Plant response rating, Sedge, Umbrella: Flood (flooded paddy test), 13 to 15 days
How it was run: (§2)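 Plants were grown to the 2-leaf stage, then pots were flooded to 3 cm above the soil and compounds were applied directly into the paddy water. That depth was held throughout. After 13 to 15 days in a greenhouse, injury was visually rated against controls on a 0–100 scale.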

[10] = test system: barnyardgrass (Echinochloa crus-galli); assay: Test B flooded paddy test; settings: for Plant response rating, Flood, Barnyardgrass: 250 g ai/ha, flooded paddy test, visual rating on 0 to 100 scale (0 no effect, 100 complete control) after 13 to 15 days; for Plant response rating, Barnyardgrass: Flood (flooded paddy test), 13 to 15 days
How it was run: as §2

[11] = test system: rice (Oryza sativa); assay: Test B flooded paddy test; settings: for Plant response rating, Flood, Rice: 250 g ai/ha, flooded paddy test, visual rating on 0 to 100 scale (0 no effect, 100 complete control) after 13 to 15 days; for Plant response rating, Rice: Flood (flooded paddy test), 13 to 15 days
How it was run: as §2

[12] = test system: ducksalad (Heteranthera limosa); assay: Test B flooded paddy test; settings: for Plant response rating, Flood, Ducksalad: 250 g ai/ha, flooded paddy test, visual rating on 0 to 100 scale (0 no effect, 100 complete control) after 13 to 15 days; for Plant response rating, Ducksalad: Flood (flooded paddy test), 13 to 15 days
How it was run: as §2

[13] = test system: winter barley (Hordeum vulgare); assay: Test B postemergence plant response; settings: for Barley plant response rating (0 to 100 scale): postemergence, 0 is no effect, 100 is complete control
How it was run: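 Plants grown in peat/vermiculite medium were sprayed postemergence at 2–18 cm height (1- to 4-leaf stage). After 13–15 days in the greenhouse, response was rated visually against untreated controls on a 0–100 scale (0 no effect, 100 complete control).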

[14] = Postemergence, 125 g ai/ha, 0 to 100 scale where 0 is no effect and 100 is complete control
[15] = Postemergence, 500 g ai/ha, 0 to 100 scale, 0 = no effect, 100 = complete control, approx. ten days
[16] = Preemergence, 125 g ai/ha, 0 to 100 scale, 0 = no effect, 100 = complete control
[17] = Preemergence, 500 g ai/ha, visual injury, 0 to 100 scale (0 no effect, 100 complete control), approx. ten days
[18] = 62 g ai/ha, scale of 0 to 100 where 0 is no effect and 100 is complete control
[19] = Postemergence, 31 g ai/ha, 0 to 100 scale (0 no effect, 100 complete control)
[20] = Postemergence, 125 g ai/ha, scale 0 to 100 (0 no effect, 100 complete control)
[21] = Postemergence, 250 g ai/ha, scale 0 to 100 (0 no effect, 100 complete control), 13 to 15 days
[22] = Postemergence, 125 g ai/ha, visual injury, 0 to 100 scale (0 no effect, 100 complete control), approx. ten days
[23] = 31 g ai/ha, scale of 0 to 100 where 0 is no effect and 100 is complete control
[24] = 62 g ai/ha, scale 0 to 100, 0 is no effect, 100 is complete control
[25] = 125 g ai/ha, scale 0 to 100, 0 is no effect, 100 is complete control
[26] = Postemergence, 500 g ai/ha, visual injury, 0 to 100 scale (0 no effect, 100 complete control), approx. ten days
[27] = Preemergence, 500 g ai/ha, 0 to 100 scale, 0 = no effect, 100 = complete control

COCCCn1c(-c2cccc(Br)c2)ncc(C(=O)C2=C(O)CCCC2=O)c1=O [Compound 140]
Plant response rating, Wheat [1, 14]: 0
Plant response rating, Wheat [1, 15]: 0
Plant response rating, Wheat [1, 16]: 0
Plant response rating, Wheat [1, 17]: 0
Plant response rating, Barnyardgrass [2, 14]: 90
Plant response rating, Barnyardgrass [2, 15]: 90
Plant response rating, Barnyardgrass [2, 16]: 60
Plant response rating, Barnyardgrass [2, 17]: 100
Plant response rating, Morningglory [3, 14]: 100
Plant response rating, Morningglory [3, 15]: 100
Plant response rating, Morningglory [3, 16]: 30
Plant response rating, Morningglory [3, 17]: 50
Plant response rating, Crabgrass, Large [4, 14]: 90
Plant response rating, Crabgrass, Large [4, 15]: 90
Plant response rating, Crabgrass, Large [4, 16]: 70
Plant response rating, Crabgrass, Large [4, 17]: 90
Plant response rating, Pigweed [5, 14]: 90
Plant response rating, Pigweed [5, 15]: 100
Plant response rating, Pigweed [5, 16]: 80
Plant response rating, Pigweed [5, 17]: 100
Plant response rating, Corn [6, 14]: 0
Plant response rating, Corn [6, 15]: 20
Plant response rating, Corn [6, 16]: 0
Plant response rating, Corn [6, 17]: 0
Plant response rating, Velvetleaf [7, 14]: 100
Plant response rating, Velvetleaf [7, 15]: 100
Plant response rating, Velvetleaf [7, 16]: 80
Plant response rating, Velvetleaf [7, 17]: 100
Plant response rating, Foxtail, Giant [8, 14]: 80
Plant response rating, Foxtail, Giant [8, 15]: 90
Plant response rating, Foxtail, Giant [8, 16]: 40
Plant response rating, Foxtail, Giant [8, 17]: 90
Plant response rating, Flood, Sedge, Umbrella [9]: 85
Plant response rating, Sedge, Umbrella [9, 18]: 75
Plant response rating, Flood, Barnyardgrass [10]: 45
Plant response rating, Barnyardgrass [10, 18]: 20
Plant response rating, Flood, Rice [11]: 40
Plant response rating, Rice [11, 18]: 0
Plant response rating, Flood, Ducksalad [12]: 85
Plant response rating, Ducksalad [12, 18]: 50
Barley plant response rating (0 to 100 scale) ([13]; 62 g ai/ha, 13 to 15 days): 0
Plant response rating, Barley [13, 19]: 0
Plant response rating, Barley [13, 20]: 0
Plant response rating, Barley [13, 21]: 0

O=C1CCCC(O)=C1C(=O)c1cnc(-c2ccccc2)n(-c2cccc(Br)c2)c1=O [Compound 38]
Wheat plant response rating [1, 22]: 0
Plant response rating, Wheat [1, 15]: 40
Plant response rating, Wheat [1, 16]: 0
Plant response rating, Wheat [1, 17]: 20
Barnyardgrass plant response rating [2, 22]: 60
Plant response rating, Barnyardgrass [2, 15]: 90
Plant response rating, Barnyardgrass [2, 16]: 10
Plant response rating, Barnyardgrass [2, 17]: 90
Morningglory plant response rating [3, 22]: 100
Plant response rating, Morningglory [3, 15]: 100
Plant response rating, Morningglory [3, 16]: 0
Plant response rating, Morningglory [3, 17]: 70
Crabgrass, Large plant response rating [4, 22]: 60
Plant response rating, Crabgrass, Large [4, 15]: 100
Plant response rating, Crabgrass, Large [4, 16]: 30
Plant response rating, Crabgrass, Large [4, 17]: 100
Pigweed plant response rating [5, 22]: 100
Plant response rating, Pigweed [5, 15]: 100
Plant response rating, Pigweed [5, 16]: 50
Plant response rating, Pigweed [5, 17]: 100
Corn plant response rating [6, 22]: 0
Plant response rating, Corn [6, 15]: 60
Plant response rating, Corn [6, 16]: 0
Plant response rating, Corn [6, 17]: 30
Velvetleaf plant response rating [7, 22]: 100
Plant response rating, Velvetleaf [7, 15]: 100
Plant response rating, Velvetleaf [7, 16]: 70
Plant response rating, Velvetleaf [7, 17]: 100
Foxtail, Giant plant response rating [8, 22]: 50
Plant response rating, Foxtail, Giant [8, 15]: 90
Plant response rating, Foxtail, Giant [8, 16]: 10
Plant response rating, Foxtail, Giant [8, 17]: 80
Plant response rating, Flood, Sedge, Umbrella [9]: 40
Plant response rating, Sedge, Umbrella [9, 23]: 0
Plant response rating, Sedge, Umbrella [9, 24]: 0
Plant response rating, Sedge, Umbrella [9, 25]: 30
Plant response rating, Flood, Barnyardgrass [10]: 0
Plant response rating, Barnyardgrass [10, 23]: 0
Plant response rating, Barnyardgrass [10, 24]: 0
Plant response rating, Barnyardgrass [10, 25]: 0
Plant response rating, Flood, Rice [11]: 0
Plant response rating, Rice [11, 23]: 0
Plant response rating, Rice [11, 24]: 0
Plant response rating, Rice [11, 25]: 0
Plant response rating, Flood, Ducksalad [12]: 65
Plant response rating, Ducksalad [12, 23]: 0
Plant response rating, Ducksalad [12, 24]: 20
Plant response rating, Ducksalad [12, 25]: 60
Plant response rating, Barley ([13]; Postemergence, 31 g ai/ha, scale 0 to 100 (0 no effect, 100 complete control)): 0
Plant response rating, Barley ([13]; Postemergence, 62 g ai/ha, scale 0 (no effect) to 100 (complete control), 13 to 15 days): 0
Plant response rating, Barley ([13]; Postemergence, 125 g ai/ha, visual rating after 13 to 15 days, scale 0 (no effect) to 100 (complete control)): 0
Barley plant response rating ([13]; Postemergence, 250 g ai/ha, scale 0 to 100): 35

O=C1CCCC(O)=C1C(=O)c1cnc(-c2cccc(F)c2)n(C2CCCCC2)c1=O [Compound 187]
Plant response rating, Wheat [1, 14]: 0
Wheat plant response rating [1, 26]: 0
Plant response rating, Wheat [1, 16]: 0
Plant response rating, Wheat [1, 27]: 0
Plant response rating, Barnyardgrass [2, 14]: 90
Barnyardgrass plant response rating [2, 26]: 100
Plant response rating, Barnyardgrass [2, 16]: 20
Plant response rating, Barnyardgrass [2, 27]: 90
Plant response rating, Morningglory [3, 14]: 100
Morningglory plant response rating [3, 26]: 100
Plant response rating, Morningglory [3, 16]: 80
Plant response rating, Morningglory [3, 27]: 90
Plant response rating, Crabgrass, Large [4, 14]: 90
Crabgrass, Large plant response rating [4, 26]: 100
Plant response rating, Crabgrass, Large [4, 16]: 30
Plant response rating, Crabgrass, Large [4, 27]: 90
Plant response rating, Pigweed [5, 14]: 100
Pigweed plant response rating [5, 26]: 100
Plant response rating, Pigweed [5, 16]: 60
Plant response rating, Pigweed [5, 27]: 70
Plant response rating, Corn [6, 14]: 0
Corn plant response rating [6, 26]: 50
Plant response rating, Corn [6, 16]: 0
Plant response rating, Corn [6, 27]: 0
Plant response rating, Velvetleaf [7, 14]: 100
Velvetleaf plant response rating [7, 26]: 100
Plant response rating, Velvetleaf [7, 16]: 70
Plant response rating, Velvetleaf [7, 27]: 100
Plant response rating, Foxtail, Giant [8, 14]: 80
Foxtail, Giant plant response rating [8, 26]: 90
Plant response rating, Foxtail, Giant [8, 16]: 30
Plant response rating, Foxtail, Giant [8, 27]: 90
Plant response rating, Flood, Sedge, Umbrella [9]: 100
Plant response rating, Sedge, Umbrella [9, 18]: 95
Plant response rating, Flood, Barnyardgrass [10]: 80
Plant response rating, Barnyardgrass [10, 18]: 45
Plant response rating, Flood, Rice [11]: 70
Plant response rating, Rice [11, 18]: 15
Plant response rating, Flood, Ducksalad [12]: 100
Plant response rating, Ducksalad [12, 18]: 95
Barley plant response rating (0 to 100 scale) ([13]; 62 g ai/ha, 13 to 15 days): 5
Plant response rating, Barley [13, 19]: 0
Plant response rating, Barley [13, 20]: 40
Plant response rating, Barley [13, 21]: 40
